Tests used:
[1] = system: TAP-expressing RMA tumor cells; assay: Proteasome inhibitor treatment of target cells, cytolysis by CTL (chromium release); format: cell-based, mouse; conditions: RMA cells treated with proteasome inhibitor
Experimental: (§1) (a) TEIPP-specific CTL were incubated with a panel of TAP-expressing syngeneic tumor cells (see Materials and Methods for descriptions of tumor cell lines). CTL response against TAP-deficient RMA-S in this experiment was 44 ng/ml. (b) Pre-treatment of TAP-expressing T-cell lymphoma (RMA) and B-cell lymphoma (786) cells with IFNγ reduced the reactivity of TEIPP-specific CTL, as measured after 6 h. […] Panels depict means of triplicate wells and one of three experiments is shown. (c-e) TAP-expressing RMA tumor cells were treated with the proteasome inhibitor lactacystin and used as targets for cytolysis by two independent TEIPP-specific CTL (c and d) or control RMA-specific CTL (e). […] One representative experiment of three is shown. […] (f-g) TAP-expressing colon carcinoma MC38 (f) and melanoma B16 (g) were loaded with oligo DNA coding a partial antisense sequence of TAP1. Recognition by TEIPP-specific CTL was measured by IFNγ release. […]
(§2) In order to make an inventory of the deficiencies that can result in TEIPP expression, we assessed the effect of several targeted interventions in the MHC class I processing pathway. […]
(§3) Cytolytic activity of CTL was measured by chromium (^51Cr) release assay, as described before (16). CTL reactivity was also measured by IFNγ release. […] IFNγ content of supernatants was measured by sandwich ELISA technique (at OD 415) as described (47). […]

[2] = system: RMA, 786 and RMA-S tumor cells; assay: IFNγ pre-treatment of tumor cells, recognition by CTL; format: cell-based, mouse
Experimental: (a) TEIPP-specific CTL were incubated with a panel of TAP-expressing syngeneic tumor cells (see Materials and Methods for descriptions of tumor cell lines). CTL response against TAP-deficient RMA-S in this experiment was 44 ng/ml. (b) Pre-treatment of TAP-expressing T-cell lymphoma (RMA) and B-cell lymphoma (786) cells with IFNγ reduced the reactivity of TEIPP-specific CTL, as measured after 6 h. […] Panels depict means of triplicate wells and one of three experiments is shown. (c-e) TAP-expressing RMA tumor cells were treated with the proteasome inhibitor lactacystin and used as targets for cytolysis by two independent TEIPP-specific CTL (c and d) or control RMA-specific CTL (e). […] One representative experiment of three is shown. […] (f-g) TAP-expressing colon carcinoma MC38 (f) and melanoma B16 (g) were loaded with oligo DNA coding a partial antisense sequence of TAP1. Recognition by TEIPP-specific CTL was measured by IFNγ release. […] (h) Tapasin−/− LPS B cell blasts are recognized by TEIPP-specific CTL in a CD8-dependent manner. Spleens of TAP1−/−, Tapasin−/− or wild type B6 mice were cultured with LPS and used as targets for TEIPP-specific CTL.
Thus far, only cells of hematopoietic origin had been tested against TEIPP-specific CTL. […] Likewise, TEIPP-specific CTL recognized immortalized mouse embryo fibroblasts from TAP1−/− origin (FIG. 2c). […] For instance, RMA, the TAP-expressing counterpart of RMA-S against which these T cells were raised, was also recognized by TEIPP-directed CTL, albeit to lower extent (FIG. 3a). Furthermore, the TEIPP-specific CTL recognized two independent TAP-expressing murine leukemia virus-induced B cell lymphomas (FIG. 3a, lines 771 and 786) and, of the tumor targets of non-hematopoietic origin, HPV type 16-transformed fibroblasts (FIG. 3a, line TC1). All these tumor cells expressed TAP, as illustrated by the fact that they serve as proper targets for control CTL that react against defined, TAP-dependent epitopes 15, 16. We therefore considered the possibility that partial deficiencies in MHC class I antigen processing may account for the recognition of several TAP-expressing murine tumor cells by TEIPP-specific CTL. Such partial defects are commonly found in human cancers 5. We examined this idea by treatment of RMA cells with IFNγ, which is known to enhance MHC class I antigen processing at multiple levels, including the transcription of TAP 17. […] In contrast, recognition by RMA-specific control CTL was increased (data not shown).
as §3

Db-restricted TEIPP CTL = assay: Peptide recognition by Db-restricted TEIPP CTL (IFNγ release); format: cell-based, mouse; conditions: synthetic peptide in titrating amounts
Source text: Kb-restricted (a) and Db-restricted TEIPP-CTL (b) respond to human TAP-deficient T2 cells with stable expression of Kb or Db when exogenously loaded with synthetic peptide libraries. Libraries contained peptides with Kb- or Db-binding motifs, Kb lib: xxxxFxxI/L/M (complexity of approximately 108) and Db lib: xxxxNxxxI/L/M (complexity of approximately 109), where x is random for all amino acids. (c-d) Db molecules from RMA-S cells (1011) were immunoaffinity purified and acid eluted peptides were separated by reversed phase HPLC, applying an increasing acetonitril gradient (OD214 left axis, % acetonitril right axis) (c). HPLC fractions were loaded unto T2.Db cells and TEIPP-specific, Db-restricted CTL were applied to detect the eluted peptide-epitope (d). […] Of note, CTL recognition of HPLC fractions depended on the presence of the relevant class I molecule on target cells (not shown). (e) MCLRMTAVM peptide is processed and presented from the Trh4 gene. The Trh4 gene was cloned from RMA-S cells using gene-specific primers. Trh4 gene in the reversed orientation (Trh4r) served as control plasmid. […]
as §3

[3] = system: TAP-deficient RMA-S lymphoma cells; assay: Peptide immunization and challenge with RMA-S tumor cells; format: in vivo; conditions: with T helper peptide and CpG oligonucleotides, B6 mice
Source text: Groups of B6 mice (n=10) were immunized with synthetic peptides comprising TEIPP Db peptide MCLRMTAVM or control Db peptide SSPVNSLRNVV51 combined with T helper peptide EPLTSLTPRCNTAWNRLKL29 and CpG oligonucleotides 28 and challenged with TAP-deficient RMA-S lymphoma cells. Mice were challenged at day 0 and immunized at days −14, 7 and 14. Immunization with irradiated RMA-S.B7 cells served as positive control.
We therefore immunized groups of mice with the newly identified Db-restricted TEIPP CTL epitope, or a control CTL epitope, in combination with a previously identified tumor-specific CD4+ T-helper epitope (29), and challenged the mice with a tumorigenic dose of RMA-S cells.
B6 mice were immunized with synthetic peptides by s.c. injections of 100 μg of peptide, 50 μg T-helper peptide EPLTSLTPRCNTAWNRLKL 29 and 40 μg Toll-Like Receptor 9 ligand CpG oligonucleotides 28 per mouse in a total volume of 200 μl PBS. Mice were challenged s.c. at the opposite flank with 8×10^5 RMA-S cells in PBS.

[4] = system: MC38 colon carcinoma cells and B16 melanoma cells; assay: TAP1 antisense oligonucleotide treatment of tumor cells, recognition by TEIPP-specific CTL (IFNγ release); format: cell-based, mouse
Experimental: as §1, §2, §3

## CC(=O)N[C@@H](CSC(=O)[C@]1([C@@H](O)C(C)C)NC(=O)[C@H](C)[C@@H]1O)C(=O)O [lactacystin]
[1]
  recognition of treated RMA cells by control CTL: decreased
  sensitivity of treated RMA cells to lysis by TEIPP-specific CTL: increased their sensitivity to lysis by these CTL

## IFNγ: interferon gamma used to pre-treat tumor cells
[2]; RMA cells
  recognition of pretreated cells by TEIPP-specific CTL: reduced recognition of these cells by TEIPP-specific CTL
[2]; RMA cells, data not shown
  recognition of pretreated cells by RMA-specific control CTL: increased
[2]; RMA cells, not shown
  MHC class I surface expression: increased three-fold
[2]; RMA-S cells, data not shown
  recognition of pretreated cells by CTL: did not result in an increased recognition

## MCLRMTAVM
Db-restricted TEIPP CTL
  recognition by Db-restricted TEIPP CTL: efficiently recognized by the Db-restricted TEIPP CTL, at much lower concentration than the mimotope peptide
[3]
  tumor protection after immunization: tumor protection in the majority of mice

## TAP1-specific anti-sense oligonucleotides: 'morpholino' oligonucleotides encoding the antisense sequence of mouse TAP1 (5′-AGAGTCTGGTCCTAGCCTGGGA-3′) (all phosphorodiamidate morpholino (PMO))
[4]
  recognition of treated cells by TEIPP-specific CTL: increased recognition by TEIPP-specific CTL

## control peptide: control Db peptide SSPVNSLRNVV used for immunization
[3]
  tumor protection after immunization: developed progressively growing tumors

Reference: patent US20090220534A1, “METHODS FOR IDENTIFYING T-CELL EPITOPES ASSOCIATED WITH IMPAIRED PEPTIDE PROCESSING AND APPLICATIONS OF THE IDENTIFIED EPITOPES” (Leiden University Medical Center, priority 2006, published 2009)
